From patent publication US20210221866A1, “PROTEASE-RESISTANT LIPIDATED GLP-1 ANALOGS” (MEDIMMUNE LIMITED, priority 2015, published 2021)
Read-outs that look alike come from different tables or passages of the source. Numbered stars: 1 amine (or outer) side, 2 acyl side, 3 side chain; on linkers, the order of the positions; unused ones are H or OH. Square brackets hold non-standard residues; d marks the D form. Side chains are listed from the residue outwards. Peptide text beside a SMILES is read from it. * marks the point of attachment. C18 diacid = O=C(O)CCCCCCCCCCCCCCCCC(=O)*; γGlu = O=C(O)[C@H](CCC(=O)[*:2])N[*:1]; Stearoyl = CCCCCCCCCCCCCCCCCC(=O)*; αMeF = C[C@](N)(Cc1ccccc1)C(=O)O; αMeK = C[C@](N)(CCCCN)C(=O)O; Lauroyl = CCCCCCCCCCCC(=O)*; αMeS = C[C@](N)(CO)C(=O)O; AEEA = NCCOCCOCC(=O)O; Aib = CC(C)(N)C(=O)O

Experiments:
Format in all cases: cell-based
[1] = target: T1, human glucagon receptor (GCGR) (Homo sapiens, UniProt P47871); assay: cAMP assay, human GCGR cells
T1 construct: expressed in transfected cells; host or cells: HEK293 cells or CHO cells
Description: (§1) Sample dilutions are made in duplicate.
(§2) A frozen cryo-vial of cells expressing the receptor of interest is thawed rapidly in a water-bath, transferred to pre-warmed assay buffer and spun at 240×g for 5 minutes. Cells are re-suspended in assay buffer at a batch-dependent optimized concentration (e.g. hGCGR cells at 2×10^5 cells/ml, hGLP-1R and hGIPR cells at 1×10^5 cells/ml).
(§3) To this, 5 μL cell suspension is added and the plates incubated at room temperature for 30 minutes.
(§4) cAMP levels are measured using a commercially available cAMP dynamic 2 HTRF kit (Cisbio, Cat #62AM4PEJ), following the two step protocol as per manufacturer's recommendations. In brief; anti-cAMP cryptate (donor fluorophore) and cAMP-d2 (acceptor fluorophore) are made up separately by diluting each 1/20 in conjugate & lysis buffer provided in the kit. 5 μL anti-cAMP cryptate is added to wells of the assay plate, and 5 μL cAMP-d2 is added to wells except non-specific binding (NSB) wells, to which conjugate and lysis buffer are added. […] EC50 values of the synthetic peptides determined in cAMP assays are then determined.
(§5) Data is transformed to % Delta F as described in the manufacturer's guidelines and analyzed by 4-parameter logistic fit to determine EC50 values. […] To compare the balance of activities at the GLP-1R and GCGR between different peptides and across different conditions, these can be correlated, where the EC50's are related to those of comparator peptides.

[2] = target: T2, human glucose-dependent insulinotropic peptide receptor (GIPR) (Homo sapiens, UniProt P48546); assay: cAMP assay, human GIPR cells
T2 construct: expressed in transfected cells; host or cells: HEK293 cells or CHO cells
T2 sequence (P48546 22-466): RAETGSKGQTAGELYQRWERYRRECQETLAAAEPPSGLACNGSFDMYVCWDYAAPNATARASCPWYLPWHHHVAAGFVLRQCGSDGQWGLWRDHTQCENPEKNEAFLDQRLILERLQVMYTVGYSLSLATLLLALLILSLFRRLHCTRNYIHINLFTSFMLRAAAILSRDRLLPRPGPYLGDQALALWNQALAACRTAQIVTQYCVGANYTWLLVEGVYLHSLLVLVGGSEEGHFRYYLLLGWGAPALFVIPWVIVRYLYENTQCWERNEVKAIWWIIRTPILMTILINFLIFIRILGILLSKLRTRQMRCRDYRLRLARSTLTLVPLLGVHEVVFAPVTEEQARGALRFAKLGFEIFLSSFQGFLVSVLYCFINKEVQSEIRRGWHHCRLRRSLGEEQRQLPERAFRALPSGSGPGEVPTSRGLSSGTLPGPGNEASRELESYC
Description: as §1, §2, §3, §4, §5

[3] = target: T3, human GLP-1 receptor (GLP-1R) (Homo sapiens, UniProt P43220); assay: cAMP assay, human GLP-1R cells; details: cAMP activity
T3 construct: expressed in transfected cells; host or cells: HEK293 cells or CHO cells
How it was run: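 Peptide-stimulated cAMP measured by two-step HTRF after a 30 min room-temperature incubation with receptor-expressing cells (hGLP-1R, hGIPR at 1×10^5 cells/ml; hGCGR at 2×10^5 cells/ml). Duplicate dilutions; EC50 from 4-parameter logistic fit of % Delta F.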

[4] = Table 9, bis-lipidated peptides, first replicate, read-out: Primary assay EC50 Gluc-R (n1)
[5] = Table 9, bis-lipidated peptides, second replicate, read-out: Primary assay EC50 Gluc-R (n2)
[6] = Table 9, bis-lipidated peptides, first replicate, read-out: Primary assay EC50 GIP-R (n1)
[7] = Table 9, bis-lipidated peptides, second replicate, read-out: Primary assay EC50 GIP-R (n2)
[8] = cAMP activity, second determination (n2), read-out: Primary assay EC50 Gluc-R
[9] = cAMP activity, first determination (n1), read-out: Primary assay EC50 GIP-R
[10] = cAMP activity, second determination (n2), read-out: Primary assay EC50 GIP-R
[11] = first determination (n1), read-out: Primary assay EC50 GLP-1R n1
[12] = mean of n1 and n2, read-out: Mean pM GLP-1R
[13] = second determination (n2), read-out: Primary assay EC50 GLP-1R n2

T3 sequence (P43220 24-463): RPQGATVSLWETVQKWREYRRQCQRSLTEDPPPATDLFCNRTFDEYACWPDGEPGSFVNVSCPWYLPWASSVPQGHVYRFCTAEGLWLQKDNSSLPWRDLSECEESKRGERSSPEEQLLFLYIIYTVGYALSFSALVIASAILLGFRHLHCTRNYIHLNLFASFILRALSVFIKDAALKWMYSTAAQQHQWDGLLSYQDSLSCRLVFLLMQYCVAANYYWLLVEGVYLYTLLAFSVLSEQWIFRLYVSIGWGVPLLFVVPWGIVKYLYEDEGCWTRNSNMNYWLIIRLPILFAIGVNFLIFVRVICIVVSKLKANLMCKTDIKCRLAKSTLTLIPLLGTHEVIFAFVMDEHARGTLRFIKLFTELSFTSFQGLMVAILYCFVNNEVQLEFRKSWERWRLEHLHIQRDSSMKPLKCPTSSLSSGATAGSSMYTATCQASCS
T1 sequence (P47871 26-477): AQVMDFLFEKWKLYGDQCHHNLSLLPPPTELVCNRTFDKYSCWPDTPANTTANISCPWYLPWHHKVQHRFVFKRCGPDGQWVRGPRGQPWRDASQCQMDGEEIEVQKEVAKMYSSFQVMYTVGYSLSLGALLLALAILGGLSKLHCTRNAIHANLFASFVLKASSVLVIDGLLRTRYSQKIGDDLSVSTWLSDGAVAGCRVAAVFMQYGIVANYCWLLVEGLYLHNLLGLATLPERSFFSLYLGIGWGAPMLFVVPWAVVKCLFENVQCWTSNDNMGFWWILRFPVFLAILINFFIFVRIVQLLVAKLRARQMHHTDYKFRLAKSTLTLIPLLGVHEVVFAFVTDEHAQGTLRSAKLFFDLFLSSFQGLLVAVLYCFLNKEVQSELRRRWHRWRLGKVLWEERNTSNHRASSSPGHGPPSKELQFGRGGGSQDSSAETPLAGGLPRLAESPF

Row | SMILES | EC50 [1, 4] [nM] | EC50 [1, 5] [nM] | EC50 [2, 6] [nM] | EC50 [2, 7] [nM] | EC50 [1, 8] [nM] | EC50 [2, 9] [nM] | EC50 [2, 10] [nM] | EC50 [3, 11] [pM] | EC50 [3, 12] [pM] | EC50 [3, 13] [pM]
1 | CC[C@H](C)[C@H](NC(=O)[C@](C)(Cc1ccccc1)NC(=O)[C@H](CCC(=O)O)NC(=O)[C@](C)(CCCCN)NC(=O)[C@H](C)NC(=O)[C@H](C)NC(=O)[C@H](CCC(=O)O)NC(=O)CNC(=O)[C@H](CCC(=O)O)NC(=O)[C@H](CC(C)C)NC(=O)[C@](C)(Cc1ccccc1)NC(=O)[C@H](CO)NC(=O)[C@H](CCCCNC(=O)COCCOCCNC(=O)COCCOCCNC(=O)CC[C@H](NC(=O)CCCCCCCCCCCCCCCCC(=O)O)C(=O)O)NC(=O)[C@@H](NC(=O)[C@H](CC(=O)O)NC(=O)[C@H](CO)NC(=O)[C@@H](NC(=O)[C@](C)(Cc1ccccc1)NC(=O)[C@H](CO)NC(=O)CNC(=O)[C@H](CCC(=O)O)NC(=O)C(C)(C)NC(=O)[C@@H](N)Cc1c[nH]cn1)[C@@H](C)O)C(C)C)C(=O)N[C@@H](C)C(=O)N[C@@](C)(Cc1ccccc1)C(=O)N[C@H](C(=O)N[C@H](C(=O)N[C@@](C)(CCCCN)C(=O)NCC(=O)NCC(N)=O)C(C)C)C(C)C [compound 118] |  |  |  |  | ≥ 25.2 | ≥ 25 | ≥ 25.2 | 810 | 783 | 758
2 | CC[C@H](C)[C@H](NC(=O)[C@](C)(Cc1ccccc1)NC(=O)[C@H](CCC(=O)O)NC(=O)[C@](C)(CCCCN)NC(=O)[C@H](C)NC(=O)[C@H](C)NC(=O)[C@H](CCC(=O)O)NC(=O)CNC(=O)[C@H](CCC(=O)O)NC(=O)[C@H](CC(C)C)NC(=O)[C@](C)(Cc1ccccc1)NC(=O)[C@H](CO)NC(=O)[C@](C)(CO)NC(=O)[C@@H](NC(=O)[C@H](CC(=O)O)NC(=O)[C@H](CCCCNC(=O)COCCOCCNC(=O)COCCOCCNC(=O)CC[C@H](NC(=O)CCCCCCCCCCCCCCCCC(=O)O)C(=O)O)NC(=O)[C@@H](NC(=O)[C@](C)(Cc1ccccc1)NC(=O)[C@H](CO)NC(=O)CNC(=O)[C@H](CCC(=O)O)NC(=O)C(C)(C)NC(=O)[C@@H](N)Cc1c[nH]cn1)[C@@H](C)O)C(C)C)C(=O)N[C@@H](C)C(=O)N[C@@](C)(Cc1ccccc1)C(=O)N[C@H](C(=O)N[C@H](C(=O)N[C@@](C)(CCCCN)C(=O)NCC(=O)NCC(N)=O)C(C)C)C(C)C [compound 121] (H-H[Aib]EGS[αMeF]TK([AEEA-AEEA-γGlu-C18 diacid])DV[αMeS]S[αMeF]LEGEAA[αMeK]E[αMeF]IA[αMeF]VV[αMeK]GG-NH2; N-terminus assumed) |  |  |  |  | ≥ 25.1 | ≥ 25 | ≥ 25.1 | ≥ 25000 | ≥ 25100 | ≥ 25100
3 | CCCCCCCCCCCC(=O)N[C@@H](CCC(=O)NCCOCCOCC(=O)NCCOCCOCC(=O)NCCCC[C@H](NC(=O)[C@H](C)NC(=O)[C@@H](NC(=O)[C@H](Cc1ccccc1)NC(=O)[C@H](CCC(=O)O)NC(=O)[C@](C)(CCCCN)NC(=O)[C@H](C)NC(=O)[C@H](C)NC(=O)[C@H](CCC(=O)O)NC(=O)CNC(=O)[C@H](CCC(=O)O)NC(=O)[C@H](CC(C)C)NC(=O)[C@H](Cc1ccc(O)cc1)NC(=O)[C@H](CO)NC(=O)[C@H](CO)NC(=O)[C@H](CCCCNC(=O)COCCOCCNC(=O)COCCOCCNC(=O)CC[C@H](NC(=O)CCCCCCCCCCC)C(=O)O)NC(=O)[C@H](CC(=O)O)NC(=O)[C@H](CO)NC(=O)[C@@H](NC(=O)[C@](C)(Cc1ccccc1)NC(=O)[C@H](CO)NC(=O)CNC(=O)[C@H](CCC(=O)O)NC(=O)C(C)(C)NC(=O)[C@@H](N)Cc1c[nH]cn1)[C@@H](C)O)[C@@H](C)CC)C(=O)N[C@H](C(=O)N[C@H](C(=O)N[C@@H](CCC(=O)O)C(=O)NCC(=O)NCC(N)=O)C(C)C)C(C)C)C(=O)O [compound 257] (H-H[Aib]EGS[αMeF]TSDK([AEEA-AEEA-γGlu-Lauroyl])SSYLEGEAA[αMeK]EFIAK([AEEA-AEEA-γGlu-Lauroyl])VVEGG-NH2) | ≥ 22.8 | ≥ 22.8 | ≥ 22.8 | ≥ 22.8 |  |  |  |  |  | 

The remaining lines, values ahead:

Row | EC50 [1, 4] [nM] | EC50 [1, 5] [nM] | EC50 [2, 6] [nM] | EC50 [2, 7] [nM] | EC50 [1, 8] [nM] | EC50 [2, 9] [nM] | EC50 [2, 10] [nM] | EC50 [3, 11] [pM] | EC50 [3, 12] [pM] | EC50 [3, 13] [pM] | SMILES
4 | ≥ 21.5 | ≥ 21.5 | ≥ 21.5 | ≥ 21.5 |  |  |  |  |  |  | CCCCCCCCCCCCCCCCCC(=O)N[C@@H](CCC(=O)NCCOCCOCC(=O)NCCOCCOCC(=O)NCCCC[C@H](NC(=O)[C@H](C)NC(=O)[C@@H](NC(=O)[C@](C)(Cc1ccccc1)NC(=O)[C@H](CCC(=O)O)NC(=O)[C@](C)(CCCCN)NC(=O)[C@H](C)NC(=O)[C@H](C)NC(=O)[C@H](CCC(=O)O)NC(=O)CNC(=O)[C@H](CCC(=O)O)NC(=O)[C@H](CC(C)C)NC(=O)[C@H](CCCCNC(=O)COCCOCCNC(=O)COCCOCCNC(=O)CC[C@H](NC(=O)CCCCCCCCCCCCCCCCC)C(=O)O)NC(=O)[C@H](CO)NC(=O)[C@](C)(CO)NC(=O)[C@@H](NC(=O)[C@H](CC(=O)O)NC(=O)[C@H](CO)NC(=O)[C@@H](NC(=O)[C@](C)(Cc1ccccc1)NC(=O)[C@H](CO)NC(=O)CNC(=O)[C@H](CCC(=O)O)NC(=O)C(C)(C)NC(=O)[C@@H](N)Cc1c[nH]cn1)[C@@H](C)O)C(C)C)[C@@H](C)CC)C(=O)N[C@H](C(=O)N[C@H](C(=O)N[C@@H](CCC(=O)O)C(=O)NCC(=O)NCC(N)=O)C(C)C)C(C)C)C(=O)O [compound 410] (H-H[Aib]EGS[αMeF]TSDV[αMeS]SK([AEEA-AEEA-γGlu-Stearoyl])LEGEAA[αMeK]E[αMeF]IAK([AEEA-AEEA-γGlu-Stearoyl])VVEGG-NH2; N-terminus assumed)
5 | ≥ 22.5 | ≥ 22.5 | ≥ 22.5 | ≥ 22.5 |  |  |  |  |  |  | CCCCCCCCCCCC(=O)N[C@@H](CCC(=O)NCCOCCOCC(=O)NCCOCCOCC(=O)NCCCC[C@H](NC(=O)[C@H](CO)NC(=O)[C@](C)(CO)NC(=O)[C@@H](NC(=O)[C@H](CC(=O)O)NC(=O)[C@H](CO)NC(=O)[C@@H](NC(=O)[C@](C)(Cc1ccccc1)NC(=O)[C@H](CO)NC(=O)CNC(=O)[C@H](CCC(=O)O)NC(=O)C(C)(C)NC(=O)[C@@H](N)Cc1c[nH]cn1)[C@@H](C)O)C(C)C)C(=O)N[C@@H](CC(C)C)C(=O)N[C@@H](CCC(=O)O)C(=O)NCC(=O)N[C@@H](CCC(=O)O)C(=O)N[C@@H](C)C(=O)N[C@@H](C)C(=O)N[C@@](C)(CCCCN)C(=O)N[C@@H](CCC(=O)O)C(=O)N[C@@H](Cc1ccccc1)C(=O)N[C@H](C(=O)N[C@@H](CCCCNC(=O)COCCOCCNC(=O)COCCOCCNC(=O)CC[C@H](NC(=O)CCCCCCCCCCC)C(=O)O)C(=O)N[C@@H](Cc1c[nH]c2ccccc12)C(=O)N[C@H](C(=O)N[C@H](C(=O)N[C@@H](CCC(=O)O)C(=O)NCC(=O)NCC(N)=O)C(C)C)C(C)C)[C@@H](C)CC)C(=O)O [compound 262] (H-H[Aib]EGS[αMeF]TSDV[αMeS]SK([AEEA-AEEA-γGlu-Lauroyl])LEGEAA[αMeK]EFIK([AEEA-AEEA-γGlu-Lauroyl])WVVEGG-NH2; N-terminus assumed)
